In test [1] the target is human IRE-1α (GST-IRE-1α) (Homo sapiens (Human), UniProt O75460). Description: IRE-1α assay (cleavage of mini-XBP-1 mRNA stem-loop substrate). The following applies: average IC50 for inhibition of IRE-1α in vitro. It is filed as biochemical. As for the experimental part:
A fusion protein comprising glutathione S transferase (GST) and human IRE-1α (GST-IRE-1α) obtained from a 500 ml baculovirus-infected insect cell culture can be used to measure IRE-1α activity in vitro. Five μl of a reaction mixture comprising 1× reaction buffer (5× reaction buffer is 100 mM Hepes pH 7.5, 250 mM KOAc, 2.5 mM MgCl2), 3 mM DTT, and 0.4% polyethylene glycol water is added to each well of 384 well plates. Twenty-five nanoliters of a 1 mM test compound solution are added to test wells. […] Negative control wells contain only reaction mixture and test compound. After spinning the plates at 1200 rpm for 30 seconds, 3 μl of an IRE-1α human mini-XBP-1 mRNA stem-loop substrate [NT] ID NO:1), labeled with the fluorescent dye Cy5 at the [NT] end, are added to each well of a control plate. The plates are again spun at 1200 rpm for 30 seconds. […] The plates are covered with lids and incubated for one hour at 30° C. The plates are then transferred to an […] microplate reader. Data is analyzed using data analysis software, and the percent activity of IRE-1α is calculated.

Test [2] has as its system IRE-1α-mediated XBP-1 splicing in human myeloma MM.1s cells. Nature of the test: Cellular XBP-1 splicing assay in myeloma cells (RT-PCR). It is filed as cell-based. The conditions noted are these: average EC50, endogenous XBP-1 splicing in myeloma cells, DTT stress. As for the experimental part:
After an additional 45 minutes (2 hours total) with compound and DTT, the cells are harvested with TRIZOL® (a mono-phasic solution of phenol and guanidine isothiocyanate), and total RNA is prepared as directed by the manufacturer (Invitrogen). Human XBP-1 is amplified by RT-PCR with the following primers, which flank the 26 base unconventional intron excised by IRE-1α:
RT-PCR of unstressed (U) cells then generates the upper band. When cells are stressed (S) with the endoplasmic reticulum (ER) stressing agent DTT, IRE-1α is activated due to accumulating unfolded protein and the resulting RT-PCR product is 26 base pairs shorter.
Compounds which pass specificity assays are assayed for cellular EC50 using endogenous XBP-1 splicing in myeloma cells. XBP-1 is regulated through the excision of a 26 nucleotide intron from the XBP-1 mRNA by the highly specific endoribonuclease activity of IRE-1α. […] This splicing event is used to measure IRE-1α activity on XBP-1 mRNA in cells and tissues.
Briefly, compounds are incubated in the presence or absence of an ER stress agent (e.g., DTT), and the ratio of XBP-1u (unspliced) to XBP-1s (spliced) is quantified by RT-PCR.

Where a name gives a salt, the structure may show the parent alone.

Sequence of human IRE-1α (GST-IRE-1α) (O75460 19-977): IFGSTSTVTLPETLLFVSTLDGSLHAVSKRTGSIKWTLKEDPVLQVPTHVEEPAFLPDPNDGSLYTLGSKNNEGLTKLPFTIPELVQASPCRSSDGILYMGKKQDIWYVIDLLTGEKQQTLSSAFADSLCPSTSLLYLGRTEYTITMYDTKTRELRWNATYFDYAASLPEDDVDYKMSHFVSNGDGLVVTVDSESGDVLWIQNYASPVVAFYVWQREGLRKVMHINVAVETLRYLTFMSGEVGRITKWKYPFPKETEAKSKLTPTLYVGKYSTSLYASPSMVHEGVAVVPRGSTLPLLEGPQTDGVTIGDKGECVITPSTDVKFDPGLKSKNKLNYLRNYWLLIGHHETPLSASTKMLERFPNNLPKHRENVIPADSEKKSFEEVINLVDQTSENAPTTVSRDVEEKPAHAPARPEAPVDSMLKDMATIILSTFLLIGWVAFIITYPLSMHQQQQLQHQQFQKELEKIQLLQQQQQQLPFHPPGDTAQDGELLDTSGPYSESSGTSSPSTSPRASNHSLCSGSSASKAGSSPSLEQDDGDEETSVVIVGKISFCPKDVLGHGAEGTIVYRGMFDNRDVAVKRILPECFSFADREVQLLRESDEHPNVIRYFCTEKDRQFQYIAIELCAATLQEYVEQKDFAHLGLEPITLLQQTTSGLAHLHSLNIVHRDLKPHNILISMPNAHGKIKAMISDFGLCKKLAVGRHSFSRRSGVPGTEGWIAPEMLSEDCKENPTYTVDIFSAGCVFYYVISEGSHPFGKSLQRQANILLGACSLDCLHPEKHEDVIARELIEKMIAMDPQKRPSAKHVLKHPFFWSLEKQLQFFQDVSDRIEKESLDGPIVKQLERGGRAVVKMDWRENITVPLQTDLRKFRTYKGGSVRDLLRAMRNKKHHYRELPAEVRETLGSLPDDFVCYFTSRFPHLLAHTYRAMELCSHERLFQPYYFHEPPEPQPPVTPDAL

For the molecule `O=Cc1c(O)ccc2cc(N3CCN(c4ccccn4)CC3)ccc12` [Compound 81], the IC50 (in general, the concentration needed to halve the response being measured) in test [1] is above 1 µM. Moreover, the concentration giving a half-maximal response (EC50) (in general, the concentration giving half of the maximal effect) in test [2] (Homo sapiens, MM1.S) was above 10 µM.
On the same counts, the results for `NCCN1CCN(C(=O)c2ccc(-c3ccc4c(C=O)c(O)ccc4c3)s2)CC1` [Compound 55] are below 1 µM and below 10 µM.
On the same counts, the results for `O=Cc1c(O)ccc2cc(-c3ccc(C(=O)NCC4CCCCN4)o3)ccc12` (stereo not shown) [Compound 77] are above 1 µM and below 10 µM.
On the same counts, the results for `Cc1nc(-c2ccc3c(C=O)c(O)ccc3c2)sc1C(=O)N1CCN(C)CC1` [Compound 65] are below 0.1 µM and below 10 µM.
Regarding `O=Cc1c(O)ccc2cc(N3CCCC(NCc4ccccn4)C3)ccc12` (stereo not shown) [Compound 108], in test [1], the IC50 is above 1 µM. The molecule also came in with an EC50 in test [2] (Homo sapiens, MM1.S) above 10 µM.
With `O=Cc1c(O)ccc2cc(CCC(=O)N3CCOCC3)ccc12` [Compound 52], the half-inhibitory concentration (IC50) in test [1] was below 1 µM. In test [2] (Homo sapiens, MM1.S), this molecule displayed an EC50 below 10 µM.
On the same counts, the results for `CN(C)CCCNC(=O)c1ccc(-c2ccc3c(C=O)c(O)ccc3c2)s1` [Compound 74] are below 1 µM and above 10 µM.
In test [1], `CN(Cc1ccncc1)C1CCN(c2ccc3c(C=O)c(O)ccc3c2)C1` (stereo not shown) [Compound 147] returned an IC50 above 1 µM. This molecule gave an EC50 in test [2] (Homo sapiens, MM1.S) above 10 µM.
On the same counts, the results for `O=Cc1c(O)ccc2cc(-c3ccc(C(=O)N4CCCC4)cc3)ccc12` [Compound 3] are below 1 µM and below 10 µM.
On the same counts, the results for `CN1CCN(C(=O)c2ccc(-c3ccc4c(C=O)c(O)ccc4c3)cc2)CC1` [Compound 5] are below 0.1 µM and below 10 µM.
`CN1CCN(C(=O)/C=C/c2ccc3c(C=O)c(O)ccc3c2)CC1` [Compound 63] showed an IC50 in test [1] below 1 µM. The same molecule registered an EC50 in test [2] (Homo sapiens, MM1.S) below 10 µM.
`CN(C)C(=O)c1ccc(Cl)c(-c2ccc3c(C=O)c(O)ccc3c2)c1` [Compound 26]: the IC50 in test [1] was above 1 µM. In test [2] (Homo sapiens, MM1.S), this molecule gave an EC50 above 10 µM.
On the same counts, the results for `CN(C)C(=O)/C=C/c1ccc2c(C=O)c(O)ccc2c1` [Compound 31] are below 0.1 µM and above 10 µM.
On the same counts, the results for `O=Cc1c(O)ccc2cc(N3CCOCC3)ccc12` [Compound 54] are above 1 µM and above 10 µM.
In turn, `CN(Cc1ccncc1)C(=O)C1CCN(c2ccc3ccc(O)c(C=O)c3c2)C1` (stereo not shown) [Compound 148] showed an IC50 in test [1] above 1 µM. In test [2] (Homo sapiens, MM1.S), this molecule returned an EC50 above 10 µM.
On the same counts, the results for `CN1CCN(C(=O)c2cc(-c3ccc4c(C=O)c(O)ccc4c3)ccn2)CC1` [Compound 66] are below 1 µM and below 10 µM.
Turning to `CCN(CC)C(=O)c1ccc(-c2ccc3c(C=O)c(O)ccc3c2)cc1` [Compound 2], the IC50 in test [1] is below 1 µM. In test [2] (Homo sapiens, MM1.S), this molecule registered an EC50 below 10 µM.
On the same counts, the results for `O=Cc1c(O)ccc2cc(N3CCN(Cc4ccccn4)CC3)ccc12` [Compound 96, 2-Hydroxy-6-(4-pyridin-2-ylmethyl-piperazin-1-yl)-naphthalene-1-carbaldehyde] are 1 µM and above 10 µM.
As for `COCCNC(=O)c1ccc(-c2ccc3c(C=O)c(O)ccc3c2)cc1` [Compound 170], the IC50 in test [1] was above 1 µM. Moreover, the EC50 in test [2] was below 10 µM.
Turning to `CN1CCN(C(=O)c2ccc(-c3ccc4c(C=O)c(O)ccc4c3)nc2)CC1` [Compound 57], the IC50 in test [1] is below 1 µM. In test [2] (Homo sapiens, MM1.S), the EC50 was below 10 µM.
On the same counts, the results for `O=Cc1c(O)ccc2cc(N3CCC(N4CCOCC4)CC3)ccc12` [Compound 82] are below 1 µM and below 10 µM.
For `O=Cc1c(O)ccc2cc(-c3ccc(C(=O)N4CCCC4)nc3)ccc12` [Compound 124], the concentration for half-maximal inhibition (IC50) in test [1] was below 1 µM. For the same molecule, the EC50 in test [2] (Homo sapiens, MM1.S) was below 10 µM.
On the same counts, the results for `CN1CCN(c2ccc3c(C=O)c(O)ccc3c2)CC1` [Compound 58, 2-Hydroxy-6-(4-methyl-piperazin-1-yl)-naphthalene-1-carbaldehyde hydrochloride] are above 1 µM and below 10 µM.
On the same counts, the results for `Cc1nc(-c2ccc3c(C=O)c(O)ccc3c2)sc1C(=O)N1CCOCC1` [Compound 109] are below 0.1 µM and below 10 µM.
For `O=Cc1c(O)ccc2cc(N3CCC(C(=O)N4CCOCC4)CC3)ccc12` [Compound 110], the IC50 in test [1] was below 1 µM. This molecule also gave an EC50 in test [2] (Homo sapiens, MM1.S) above 10 µM.
On the same counts, the results for `CN1CCN(c2ncc(-c3ccc4c(C=O)c(O)ccc4c3)s2)CC1` [Compound 121] are below 0.1 µM and below 10 µM.
In test [1], `CN1CCN(c2ncc(-c3ccc4c(C=O)c(O)ccc4c3)cn2)CC1` [Compound 80] came in with an IC50 below 0.1 µM. For the same molecule, the EC50 in test [2] (Homo sapiens, MM1.S) was below 10 µM.
On the same counts, the results for `CNC1CCN(c2ccc3c(C=O)c(O)ccc3c2)C1` (stereo not shown) [Compound 122] are above 1 µM and below 10 µM.
In test [1], `COCCNC(=O)c1cccc(-c2ccc3c(C=O)c(O)ccc3c2)c1` [Compound 4] had an IC50 below 0.1 µM. Moreover, in test [2] (Homo sapiens, MM1.S), the EC50 is below 10 µM.
On the same counts, the results for `CCCNC(=O)c1cccc(-c2ccc3c(C=O)c(O)ccc3c2)n1` [Compound 16] are below 0.1 µM and 10 µM.
On the same counts, the results for `Cc1nc(-c2ccc3c(C=O)c(O)ccc3c2)sc1C(=O)NCCN1CCOCC1` [Compound 142] are below 0.1 µM and below 10 µM.
The molecule `O=Cc1c(O)ccc2cc(-c3ccc(C(=O)NC4CCCNC4)s3)ccc12` (stereo not shown) [Compound 47] yielded an IC50 in test [1] below 0.1 µM. Besides, in test [2] (Homo sapiens, MM1.S), the 50% effective concentration (EC50) is below 10 µM.
On the same counts, the results for `CN1CCN(C(=O)c2coc(-c3ccc4c(C=O)c(O)ccc4c3)n2)CC1` [Compound 76] are below 1 µM and below 10 µM.
As for `O=Cc1c(O)ccc2cc(-c3ccc(C(=O)N4CC5CC4CN5)s3)ccc12` (stereo not shown) [Compound 75], the 50% inhibitory concentration (IC50) in test [1] is below 0.1 µM. The same molecule yielded an EC50 in test [2] (Homo sapiens, MM1.S) below 10 µM.
As to `CN1CCN(C(=O)C2CCN(c3ccc4c(C=O)c(O)ccc4c3)CC2)CC1` [Compound 91], the IC50 in test [1] was above 1 µM. In addition, in test [2] (Homo sapiens, MM1.S), the EC50 was above 10 µM.
On the same counts, the results for `O=Cc1c(O)ccc2cc(N3CCC(NCc4ccccc4)C3)ccc12` (stereo not shown) [Compound 153] are above 1 µM and above 10 µM.
`O=Cc1c(O)ccc2cc(N3CCCC(NCc4ccccc4)C3)ccc12` (stereo not shown) [Compound 98]: the IC50 in test [1] worked out at 1 µM. Besides, the EC50 in test [2] (Homo sapiens, MM1.S) is below 10 µM.
The molecule `CSc1ncc(-c2ccc3c(C=O)c(O)ccc3c2)cn1` [Compound 64] gave an IC50 in test [1] above 1 µM. Also, the EC50 in test [2] (Homo sapiens, MM1.S) was above 10 µM.
As to `CS(=O)(=O)NC1CCCN(c2ccc3c(C=O)c(O)ccc3c2)C1` (stereo not shown) [Compound 94], the IC50 in test [1] was above 1 µM. Further, in test [2] (Homo sapiens, MM1.S), the EC50 was above 10 µM.
`CCN(CC)C(=O)c1cccc(-c2ccc3c(C=O)c(O)ccc3c2)n1` [Compound 7]: the IC50 in test [1] was below 1 µM. The same molecule gave a half-maximal effective concentration (EC50) in test [2] (Homo sapiens, MM1.S) of 10 µM.
With `CN(Cc1ccccc1)C1CCN(c2ccc3c(C=O)c(O)ccc3c2)C1` (stereo not shown) [Compound 146], the IC50 in test [1] was above 1 µM. The EC50 in test [2] (Homo sapiens, MM1.S) is above 10 µM.
For the molecule `CN(C)C(=O)c1ccc(-c2ccc3c(C=O)c(O)ccc3c2)o1` [Compound 35], in test [1], the IC50 was below 0.1 µM. The EC50 in test [2] (Homo sapiens, MM1.S) is below 10 µM.
On the same counts, the results for `Cc1nc(-c2ccc3c(C=O)c(O)ccc3c2)sc1C(=O)NC1CCN(C)CC1` [Compound 145] are below 1 µM and below 10 µM.
`O=Cc1c(O)ccc2cc(-c3ccc(C(=O)NCC4CCCCN4)s3)ccc12` (stereo not shown) [Compound 41] registered a 50% inhibitory concentration (IC50) in test [1] below 0.1 µM. In test [2] (Homo sapiens, MM1.S), this molecule yielded an EC50 below 10 µM.
`CN(C)C1CCN(c2ccc3c(C=O)c(O)ccc3c2)C1` (stereo not shown) [Compound 106]: in test [1], the IC50 is above 1 µM. This molecule registered an EC50 in test [2] (Homo sapiens, MM1.S) above 10 µM.
On the same counts, the results for `O=Cc1c(O)ccc2cc(-c3ccc(C(=O)NC4CCNCC4)nc3)ccc12` [Compound 151] are below 1 µM and below 10 µM.
As to `O=Cc1c(O)ccc2cc(-c3ccc(C(=O)NCCN4CCOCC4)s3)ccc12` [Compound 36], in test [1], the half-maximal inhibitory concentration (IC50) is below 0.1 µM. Besides, in test [2] (Homo sapiens, MM1.S), the 50% effective concentration (EC50) was below 10 µM.
As for `CNC(=O)C1CCN(c2ccc3c(C=O)c(O)ccc3c2)C1` (stereo not shown) [Compound 127], in test [1], the IC50 was below 1 µM. This molecule yielded an EC50 in test [2] (Homo sapiens, MM1.S) above 10 µM.
On the same counts, the results for `CN(Cc1ccccc1)C1CCN(c2ccc3ccc(O)c(C=O)c3c2)C1` (stereo not shown) [Compound 152] are above 1 µM and above 10 µM.
With `COCCNCCNC(=O)c1ccc(-c2ccc3c(C=O)c(O)ccc3c2)cn1` [Compound 125], the IC50 in test [1] was below 0.1 µM. This molecule also showed an EC50 in test [2] (Homo sapiens, MM1.S) below 10 µM.

Source of the values: patent publication US9493435B2, “IRE-1α inhibitors” (MannKing Corporation, priority 2009, dated 2016).
